Results: patent publication US20250009791A1, “METHOD FOR PREVENTION AND REDUCTION OF SKIN STASIS WITH COMPOSITIONS AND MATERIALS COMPRISING COPPER COMPOUNDS” (MEDCU TECHNOLOGIES LTD., priority 2018, published 2025)
Entries after “also recorded” stand apart in the source; their conditions may differ.

How the values were obtained:
TGF-β = TGF-β secretion into spent medium by ELISA; type: cell-based, human
Procedure: (§1) During harvesting time points, the spent medium from all Test Groups was collected and centrifuged at 1500×g for 5 minutes to remove particulates. Media were kept at −80° C. until use. The secretion levels of IL-6, IL-8 and TGF-β were measured by commercial Enzyme-Linked Immunosorbent Assay (ELISA) kits according to manufacturer instructions (Biolegend, San Diego, CA). Briefly, plates were coated for 24 hours prior to assay with a specific anti-human capture antibody. At the day of the assay, coated plates were incubated with samples, followed by washes for unbound molecules. Then additional detection antibody was added and detected by Avidin-HRP solution. Finally, wells were incubated with a substrate solution, while absorbance was measured at 570 nm.
(§2) In order to further understand how addition of copper ions affected the skin explants, the amounts of Interleukin 6 (IL-6), Interleukin 8 (IL-8) and transforming growth factor beta (TGF-β) found in the medium of the various treated explants were determined. FIGS. 3a, 3c and 3e show the cytokine expression in burn-induced inflammation in human ex vivo skin and comparison between the IL-6, IL-8 and TGF-β secretion by the untreated skin explants (Naïve Controls) and the wounded skin explants (Burn Controls) following wounding. In these figures, the p values of a t-test between the cytokine expressions per a particular day following wounding are shown. Measurements were normalized to amount of cytokine secreted from normal skin and are presented as percent of Naïve control.
Reference is also made to FIGS. 3b, 3d and 3f showing the effect of addition of copper ions (0.02 μM or 1 μM) on secretion of IL-6, IL-8 and TGF-β, respectively, as compared to Naïve Controls and Burn Controls on Day 4 (treated with saline only) (FIGS. 3b and 3d) and on Day 6 (FIG. 3f) after wounding. In the graphs, the star sign “*” indicates the statistically significant difference as compared to the Naïve Controls, while the net sign “#” indicates the statistically significant difference as compared to the untreated (treated with saline only) Burn Controls.

IL-6 = IL-6 secretion into spent medium by ELISA; type: cell-based, human
Procedure: as §1, with “nm. In order to further understand how addition of copper ions affected the skin explants, the amounts of Interleukin 6 (IL-6), Interleukin 8 (IL-8) and transforming growth factor beta (TGF-β) found in the medium of the various treated explants were determined. FIGS. 3a, 3c and 3e show the cytokine expression in burn-induced inflammation in human ex vivo skin and comparison between the IL-6, IL-8 and TGF-β secretion by the untreated skin explants (Naïve Controls) and the wounded skin explants (Burn Controls) following wounding. […]” for “nm.”

[1] = tested on: epidermis of human skin explants; assay: MTT viability assay of the epidermis of skin explants; type: cell-based; conditions: 0.02 μM or 1 μM copper ions
Procedure: To assess the cell viability throughout the culture period a 3-(4,5-dimethylthiazol-2-yl)-2,5-diphenyltetrazolium bromide (MTT) assay was performed at different days after wounding as follows:
To assess the cell viability throughout the culture period a 3-(4,5-dimethylthiazol-2-yl)-2,5-diphenyltetrazolium bromide (MTT) assay was performed 1, 3, 5, 10, 14, 21 and 27 days, following wounding, as follows: skin explants were incubated for 60 sec in pre-warmed PBS (56° C.). Then the epidermis layer of each replicate was separated from the dermis by grabbing the tissue edge with tweezers and peeling the epidermis off using a scalpel. Epidermal pieces were transferred to 96 well-plate, each well contains 150 μl MTT (Sigma, 0.5 mg/ml) and incubated for 1 hour at 37° C. and reduced light conditions. Then, the epidermis pieces were transferred to a new 96 well-plate containing 150 μl of isopropanol. Plates were placed for 5 min, 200 rpm in a plate shaker (MRC, Beijing, China). Following incubation, epidermis sections were removed, and absorbance was measured at 570 nm in Tecan plate reader (Tecan Group Ltd. Switzerland).

IL-8 = IL-8 secretion into spent medium by ELISA; type: cell-based, human
Procedure: as §1
as §2, with “In these figures, the p values of a t-test between the cytokine expressions per a particular day following wounding are shown. Measurements were normalized to amount of cytokine secreted from normal skin and are presented as percent of Naïve control.” left out

[2] = tested on: burned human skin explants; assay: Histology of skin explants (H&E, Masson's trichrome); type: cell-based
Procedure: At indicated harvesting time points, skin explants were fixed with 4% formaldehyde for 1 hour at room temperature. Then, the samples were washed twice with PBS and kept at 70% ethanol at 2-8° C. until use. Following dehydration in gradual increasing concentrations of ethanol and embedment, paraffin sections (8 μm) were prepared, pasted on slides and either stained with haematoxylin and eosin (H&E) or Masson trichrome stain, according to the manufacturer specification (Sigma-Aldrich) followed by mounting with DPX mountant (Sigma, Israel).
Examination of tissue formation was performed on day 12 and 27. Sections of Normal and Burned skin, treated or not with copper ions were stained with H&E and Masson's trichrome staining respectively. FIGS. 6a-6c show full length images of sections stained with H&E.

[3] = tested on: burn wounds on human skin explants (zone of stasis); assay: Burn wound area measurement in ex-vivo human skin explant burn model; type: cell-based; conditions: for size of the wounds compared with wounds treated with saline only: 0.02 μM copper ions
Procedure: Human skin was obtained from healthy donors undergoing abdominal dermolipectomy after receiving informed consent. A 0.5 mm split-thickness skin graft was harvested using a dermatome (Aesculap AG & Co. KG, Tuttlingen, Germany) and was cut into 1 cm^2 pieces. Round burn wounds of with a diameter of […] were inflicted in the 0.7 cm^2 skin pieces by exposure to a soldering iron (95° C., 2 Sec). Triplicate pieces were kept intact as naïve controls. The injured and intact skin samples were placed dermis down on a stainless-steel grid and cultured at the air-liquid interface at 37° C. with 5% CO2 in Dulbecco's Modified Eagle's Medium (DMEM), 10% fetal calf serum (Biological Industries, Beit Ha′emek, Israel), and penicillin/streptomycin (100 IU/mL penicillin, […] streptomycin; Invitrogen). Culture medium was refreshed twice a week. The explants were cultured up to 27 days after wounding. Each individual experiment was performed with skin explants obtained from the same individual and the experiments were repeated at least three times. Reference is now made to FIGS. 1a and 1b schematically showing a side view and a top view, respectively, of this ex-vivo explant model. The skin explants are placed dermis down on a stainless-steel grid. Culture media is added to the bottom of the well, without reaching the epidermal layer, which is exposed to the air. […] From the stock solutions, solutions of 0.02 μM or 1 μM of copper ions were prepared in saline. […] Each control and treatment were performed in at least three replicate explants. Skin was obtained from 35-65-year-old healthy patients undergoing abdominoplasty surgery. The patient's under general anesthesia, went standard or circumferential abdominoplasty. After excision of the excess skin, the subcutaneous fat was removed using sterile technique. The defatted full-thickness skin was submerged in culture medium and transferred to the laboratory. The skin was cut into 8×8 mm squares by costume made apparatus. Round 0.8 mm diameter burn wounds were inflicted on the skin explants by exposure to a soldering iron (200° C., 10 Sec). The injured (burnt) and control intact skin samples were placed dermis down and kept at the air-liquid interface at 37° C. with 5% CO2 in Dulbecco's Modified Eagle's Medium supplemented with 100 IU/mL penicillin and […] streptomycin and 10% serum (Biological Industries, Beit Ha′emek, Israel). Culture medium was refreshed every 48 hours, i.e. immediately following injury and then again, every 48 hours, saline only or containing 0.02 μM or 1 μM copper ions were added onto the skin explant burn wounds. The explants were cultured up to 27 days after wounding. Pictures of burns were captured using Motic® Moticam 5+ camera at designated time points. Wound area was measured using ImageJ software suit. […]

[4] = tested on: Ki67 stained cells in burned human skin explants; assay: Ki67 immunostaining of proliferating keratinocytes at the re-epithelisation area; type: cell-based; conditions: FIG. 7
Procedure: Immunostaining with Rabbit-anti Ki67 (Abcam, UK) was performed following rehydration, blocking in 2% BSA in PBS for 20 mins, for 2 hours, followed by exposure to Goat Anti-Rabbit IgG H&L (HRP) for one hour and detection by DAB substrate (Abcam, UK). Washes were then performed in 0.025% Tween/PBS. Counterstain was performed with haematoxylin (Sigma, Israel). Images were captured using Zeiss® PrimoVert microscope connected to Motic® Moticam 5+ camera.

## [Cu+] [copper ions]
TGF-β; 0.02 μM or 1 μM copper ions from both copper sources, Day 4 (FIG. 3f)
  burn-induced increase of TGF-β compared with Burn Controls: dramatically inhibited; also recorded: significantly attenuated or abolished; also recorded: significantly inhibited
TGF-β; Day 6 and onwards
  TGF-β level: returning to normal levels
TGF-β; other examined days
  TGF-β secretion compared with Burn control samples: no statistically significant differences
IL-6; Day 1 following the burn
  levels of IL-6: dramatically elevated in the Burn Controls but not in the copper ion treated samples
IL-6; after Day 4
  IL-6 levels compared with Burn Control samples: no significant differences in IL-6 levels
[1]; 5 days after burn, differences not statistically significant
  viability of burned skin explants compared with untreated pieces: a trend of increased viability
[1]; after 1 day
  viability of burned skin explants compared with untreated pieces: remained similar to the untreated pieces
IL-8; 0.02 μM or 1 μM copper ions from both copper sources, Day 4 (FIG. 3d)
  burn-induced increase of IL-8 compared with Burn Controls: significantly lower; also recorded: significantly attenuated or abolished
IL-8; Day 1
  amount of IL-8 secreted compared with Burn control samples: did not differ significantly
[2]; 0.02 μM and 1 μM copper ions, 12 days, H&E, vs Burn Control
  re-epithelisation (epithelia regeneration): Beginning of epithelia regeneration (grey arrows) is seen; also recorded: newly formed epithelia
[2]; 0.02 μM or 1 μM copper ions, day 12, H&E, FIGS. 6b and 6c
  detachment of the epidermal tissue from the dermis: less detached of the epidermal tissue from the dermis
[2]; Day 27, Masson's trichrome, FIG. 4c, vs control samples
  re-epithelisation: clear re-epithelisation occurred
[2]; Day 27, Masson's trichrome, FIG. 4c, vs saline-treated control
  collagen stain / amount of collagen fibers in the dermal layer: an increase in the amount of collagen fibers; also recorded: greater collagen stain
[3]; 5 and 10 days following wounding
  size of the wounds compared with wounds treated with saline only: similarly smaller wounds
[3]; three days following wounding
  size of the wounds compared with wounds treated with saline only: statistically smaller than the wounds which are treated with saline only
[3]; end of the experiment
  burn size at the end of the experiment: not massively improved
[3]; topical application of the ions
  increase in burn size that occurs after the initial damage: prevented the increase in burn size
[4]; 0.02 μM copper ions
  amount of Ki67 stained cells compared to control: significantly higher amount of Ki67 stained cells
[4]; skin pieces fixed after 12 days
  newly proliferating cells stained with Ki67: significantly more common
